Assay results published in publication PMC11726677, “Eradication of Therapy-Resistant Cancer Stem Cells by Novel Telmisartan Derivatives” (Journal of Medicinal Chemistry, 2024).
pEC50: −log10 of the molar value.

What was measured:
[1] = molecular target: ABCB1 transporter in K562-R cells (Homo sapiens, UniProt P08183); assay: Side population (SP) analysis, DCV staining, flow cytometry; settings: 10 μM
Method: SP analyses were performed as previously described[45] on a LSRFortessa flow cytometer (BD Biosciences, Vienna, Austria). Briefly, 1 × 10^6 cells/mL were stained with 10 μM Vybrant DyeCycleTM Violet (DCV; Molecular Probes, Eugene, OR) in the presence or absence of the investigated compounds for 90 min at 37 °C. […] Subsequently, the cells were washed and immediately analyzed using flow cytometry. The FlowJo 9.6 software was used for data analyses (Tree Star Software, Ashland, CA).

PC3-DR cells = assay: Chemosensitizing to docetaxel: metabolic activity of PC3-DR cells (MTT); type: cell-based, human; settings: compound 10 μM + DTX 12.5 nM, 72 h
Method: The chemosensitizing efficacy was investigated in the ovarian and prostate cancer cell lines using the above-described metabolic activity assay. Paclitaxel (PTX) served as a reference (CTR) in A2780 V SP and IGROV-1 SP cells and docetaxel (DTX) in PC3-DR and D145-DR cells.
(§1) COS-7 (2 × 10^3 cells per well), IGROV-1 SP (2.5 × 10^3 cells per well), A2780 V SP (1.5 × 10^3 cells per well), PC3-DR (4 × 10^3 cells per well), and DU145-DR (3 × 10^3 cells per well) cells were seeded in 96-well plates in triplicates and after 24 h, the compounds were added at the respective concentrations. K562-R and K562 cells (2 × 10^4 cells per well), were treated with the compounds 2 h after seeding. […] A modified MTT colorimetric assay (EZ4U kit, Biomedica) was used to determine the metabolic activity of the tested cells, according to the manufacturer’s instructions. Absorbance was measured and the optical density of the respective FCS-containing medium and of the substrate was subtracted to exclude nonspecific staining. Metabolic activity in the absence of the compounds (CTR, DMSO) was set to 100% as reference.

PC3-DR cells (ABCB1+) = assay: SP analysis (DCV, flow cytometry) in PC3-DR cells; type: cell-based, human; settings: 10 μM
Description: (§2) In recent studies, we described the side population (SP) phenotype as a marker that defines a heterogeneous cellular compartment with stem cell-characteristics in various cancer cell lines derived from solid tumors, such as ovarian cancer, breast cancer, and lung cancer.[26],[27]

[2] = system: IGROV-1 SP cells (ABCB1+); assay: SP analysis (DCV, flow cytometry) in IGROV-1 SP cells; type: cell-based, human; settings: 10 μM
Description: as §2

[3] = Microsomal metabolic stability, mouse; type: in vitro ADME; settings: for metabolic stability Mouse, % of compound remaining: after 30 min in MLM, 1 μM; for half-life at 1 µM: mouse, pooled mouse liver microsomes, pH 7.4, MLM, read-out: metabolic stability Mouse t1/2
Method: The stability of the compounds was assessed in pooled human and mouse liver microsomes (final protein concentration 0.5 mg/mL). […] At the appropriate time points, the reactions were stopped by transferring into acetonitrile. After protein precipitation, by centrifugation at 3000 rpm for 20 min at 4 °C, the sample supernatants were analyzed using LC–MS/MS analysis (control compounds were included). The elimination rate constant was determined from the ratio of the ln peak area to time. Half-life (t1/2) and intrinsic clearance (CLint) were calculated using the appropriate formulas.

[4] = system: primary human CML patient samples; assay: Colony forming cell (CFC) assay, primary CML patient samples; type: cell-based; settings: together with 1 μM of imatinib, once at the beginning of the 14 day assay; compound 10 μM
Description: Frozen peripheral blood mononuclear cells (PBMC) from TKI naïve CML patients and healthy controls were used for the CFC assay as described previously.[46] Briefly, thawed cells were resuspended a semisolid medium (Enriched MethocCult H4435, Stem Cell Technologies) supplemented with the respective compounds and cultured in small culture dishes for 2 weeks. Colonies were counted using an inverted microscope.

K562-R cells [5] = assay: Cellular imatinib accumulation assay (U(H)PLC-SIM-MS); type: cell-based, human; settings: preincubated 1 h with 10 μM compound, then 1 μM imatinib 2 h
Method: After treatment, cells were washed, and the resulting cell pellets were lysed in 200 μL of ice-cold methanol. Lysates were incubated on a tube shaker (Thermomixer C, Eppendorf) for 20 min at 4 °C and 1400 rpm, followed by centrifugation (MicroStar 17R, VWR) at 16000g for 5 min at 4 °C. 180 μL of supernatants were separated from the sediment and dried in a rotary vacuum evaporator (Concentrator plus, Eppendorf) and stored at −80 °C until analysis.
Metabolites were separated using the following gradient: 1% B for 0.2 min, 1% B to 70% B within 0.6 min, 70% B to 90% B within 0.2 min, 90% B for 0.3 min. The UPLC system was coupled to a quadrupole orbitrap mass spectrometer (Exploris 480, Thermo Fischer Scientific) via a HESI electrospray source. […] The spray voltage was set to 3500 V and the ion transfer tube and vaporizer temperatures were set at 350 °C. Sheath gas was used at a flow rate of 60 (arbitrary units (a.u)) and auxiliary gas at a flow rate of 15 (a.u)).
Raw data processing was performed using TraceFinder General Quan 5.0 (Thermo Scientific, San Jose, CA, USA). The ICIS algorithm was used for peak identification and integration with the following parameters Peak detection strategy: Highest peak; Peak threshold type: Area; Threshold: 1; Smoothing: 3; S/N threshold: 3; Tailing Factor: 8. Peaks were manually adjusted when necessary. […]

K562-R cells [6] = assay: Chemosensitizing: metabolic activity of K562-R cells cotreated with imatinib (modified MTT assay); type: cell-based, human; settings: for chemosensitizing effect, concentration-dependent analysis: 0.5–8 μM (transporter inhibitors 10 to 0.5 μM); for rate of imatinib-triggered cell death: at 10 μM; for metabolic activity of K562-R cells, combination with imatinib: compound 10 μM + imatinib 1 μM
Method: (§3) The potential reduction in cell viability was determined using the modified MTT assay.
conc. 10 to 0.5 μM) over 72 h (Figure 3D).
as §1

A549 cells (ABCC1+) = assay: SP analysis (DCV, flow cytometry) in A549 cells; type: cell-based, human; settings: A549, 10 μM
Description: as §2

K562-R cells [7] = assay: Metabolic activity of K562-R cells, compounds alone (modified MTT assay); type: cell-based, human; settings: 10 μM, 72 h, without imatinib; vehicle control = 100%
Method: as §3
First, the compounds (10 μM) were applied alone to evaluate their effects per se.
as §1

Caco2 cells = assay: Caco2 permeability (bidirectional); type: in vitro ADME; settings: pH 7.4, 10 μM; for Caco2 permeability Papp B–A: basolateral to apical
Method: The medium was changed regularly and on day 20 the permeability study was performed. The monolayers were prepared by rinsing the apical and basolateral surfaces with Hanks Balanced Salt Solution (HBSS) twice at the desired pH and by incubating for 40 min to stabilize the physiological parameters. […] The compounds were diluted with buffer to a concentration of 10 μM (final DMSO concentration ≤1%) and added to the apical or basolateral sides of the cell monolayer. Compound permeability was assessed in duplicates and molecules of known permeability characteristics were used as controls (antipyrine, atenolol, talinolol, and estrone 3-sulfate). To calculate Papp, compound appearance was measured using LC–MS/MS. The efflux ratio was determined for bidirectional assays.

[8] = system: A2780 V SP cells (ABCB1+); assay: SP analysis (DCV, flow cytometry) in A2780 V SP cells; type: cell-based, human; settings: 10 μM
Description: as §2

ABCB1 transporter in K562-R cells, sequence (P08183 whole entry): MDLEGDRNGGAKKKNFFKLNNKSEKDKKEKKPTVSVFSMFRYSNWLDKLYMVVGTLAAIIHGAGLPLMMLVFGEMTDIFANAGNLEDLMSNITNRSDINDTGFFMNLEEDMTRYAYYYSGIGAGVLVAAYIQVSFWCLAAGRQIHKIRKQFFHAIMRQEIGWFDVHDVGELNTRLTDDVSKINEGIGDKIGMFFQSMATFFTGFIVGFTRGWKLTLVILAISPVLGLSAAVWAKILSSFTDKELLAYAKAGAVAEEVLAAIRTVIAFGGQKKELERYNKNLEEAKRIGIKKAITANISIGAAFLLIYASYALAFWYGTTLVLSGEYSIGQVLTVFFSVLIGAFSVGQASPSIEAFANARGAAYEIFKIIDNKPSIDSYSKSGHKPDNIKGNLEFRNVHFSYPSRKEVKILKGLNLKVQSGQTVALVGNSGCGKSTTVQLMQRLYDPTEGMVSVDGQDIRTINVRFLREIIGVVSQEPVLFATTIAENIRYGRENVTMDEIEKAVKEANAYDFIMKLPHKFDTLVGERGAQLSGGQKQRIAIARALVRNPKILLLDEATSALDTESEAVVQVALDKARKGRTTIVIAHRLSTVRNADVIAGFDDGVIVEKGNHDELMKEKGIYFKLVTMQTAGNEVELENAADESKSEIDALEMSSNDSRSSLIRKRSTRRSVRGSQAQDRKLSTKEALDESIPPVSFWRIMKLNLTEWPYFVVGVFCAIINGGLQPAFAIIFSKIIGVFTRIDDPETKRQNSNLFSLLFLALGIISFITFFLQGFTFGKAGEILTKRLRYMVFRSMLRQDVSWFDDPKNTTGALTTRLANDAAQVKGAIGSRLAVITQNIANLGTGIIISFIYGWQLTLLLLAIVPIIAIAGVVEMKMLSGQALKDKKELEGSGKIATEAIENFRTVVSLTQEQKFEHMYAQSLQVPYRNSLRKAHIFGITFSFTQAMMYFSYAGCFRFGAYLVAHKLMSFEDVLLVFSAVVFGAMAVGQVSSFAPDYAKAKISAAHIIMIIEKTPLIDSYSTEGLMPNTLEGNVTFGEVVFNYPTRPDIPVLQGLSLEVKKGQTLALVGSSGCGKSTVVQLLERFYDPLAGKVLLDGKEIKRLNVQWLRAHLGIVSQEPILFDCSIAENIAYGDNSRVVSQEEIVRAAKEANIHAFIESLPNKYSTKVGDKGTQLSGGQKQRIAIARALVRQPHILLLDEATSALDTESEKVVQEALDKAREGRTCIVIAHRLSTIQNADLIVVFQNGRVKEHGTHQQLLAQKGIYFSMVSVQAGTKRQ

Row | Compound | effect on SP phenotype / ABCB1 activity [1] | chemosensitizing to DTX (antimetabolic activity) (PC3-DR cells) | effect on SP phenotype (PC3-DR cells (ABCB1+)) | effect on SP phenotype [2] | metabolic stability Mouse, % of compound remaining [3] [%] | half-life at 1 µM [3] [min] | number of colonies (CFC) [4] | intracellular accumulation of imatinib (K562-R cells [5]) | chemosensitizing effect, concentration-dependent analysis (K562-R cells [6]; K562-R, + imatinib 1 μM, 72 h) | rate of imatinib-triggered cell death (K562-R cells [6]; K562-R) [%] | metabolic activity of K562-R cells, combination with imatinib (K562-R cells [6]; 72 h) | effect on SP phenotype (A549 cells (ABCC1+)) | metabolic activity of K562-R cells, compound alone (K562-R cells [7]) | Caco2 permeability Papp A–B (Caco2 cells; apical to basolateral) | Caco2 permeability Papp B–A (Caco2 cells) | effect on SP phenotype [8] | pEC50 (K562-R cells [6]; K562-R, + imatinib 1 μM, 72 h, read-out: SC50 (drug concentration eliciting 50% of the maximum sensitizing effect))
1 | CCCc1nc2c(C)cc(-c3nc4ccccc4n3C)cc2n1Cc1ccc(-c2ccccc2C(=O)OC)cc1 [7b, Methyl 4′-((1,7′-dimethyl-2′-propyl-1H,3′H-[2,5′-bibenzo[d]imidazole]-3′-yl)methyl)-[1,1′-biphenyl]-2-carboxylate] | completely repressed the SP phenotype | only marginally increased the antimetabolic activity of DTX | eliminated the SP phenotype | eliminated the SP phenotype | 3 | 6 | significantly reduced the number of colonies | notably restored | strongly sensitized the cells to imatinib therapy | > 85 | 8–24% | eliminated the SP phenotype | inactive | 0.1 10^–6 cms^–1 | 0.2 10^–6 cms^–1 | eliminated the SP phenotype | –
2 | CCCc1nc2c(C)cc(-c3nc4ccccc4n3C)cc2n1Cc1ccc(-c2ccccc2C(N)=O)cc1 [7c, 4′-((1,7′-Dimethyl-2′-propyl-1H,3′H-[2,5′-bibenzo[d]imidazole]-3′-yl)methyl)-[1,1′-biphenyl]-2-carboxamide] | completely repressed the SP phenotype | most active chemosensitizer | eliminated the SP phenotype | eliminated the SP phenotype | 13.3 | 8.8 | significantly reduced the number of colonies | notably restored | strongly sensitized the cells to imatinib therapy | > 85 | 8–24% | eliminated the SP phenotype | inactive | – | 30.8 10^–6 cms^–1 | eliminated the SP phenotype | 5.73
